# Marks after values point to notes of the source that are not given here.
# Experiments:
# Type in all cases: in vivo, Sprague-Dawley (SD) rats
# [1] = system: obesity rats induced by high-fat feed; assay: Body weight change of obesity rats induced by high-fat feed; settings: high-fat diet rats, Monascinol 0.31 mg/kg BW daily by tube feeding (human 3 mg/day), 8 weeks
# Experimental: • (1) Msol Group: This group used Monascinol with an adult daily dosage of 3 mg/day. • (2) RL and RH Groups: These groups used the red yeast rice obtained by fermenting the Monascus pilosus fermented rice of the present invention and the red yeast rice contained 3 mg/g of Monascinol, wherein the adult daily dosage of the red yeast rice for the RL and RH groups were 0.5 g/day and 2 g/day respectively. 2. Experiment on Evaluation of Adjustment of Body Fat Composition
# (§1) Forty male rats of 8-week-old Sprague-Dawley (SD) strain were purchased from BioLASCO (Taipei, Taiwan) for the experiment. The growing environment was one with constant indoor temperature (25±1° C.), relative humidity of 60%, and 12 hours of cyclic light (light time from 8:00 to 20:00). The rats were acclimatized for four days before the formal experiment, then reared in 5 groups of 8 rats each for 8 weeks and were fed in an ad libitum feeding manner, and their body weight, food intake and water intake were measured at regular intervals during the experimental period.
# The feeding dosage was calculated according to the method of “Estimating the maximum safe starting dose in initial clinical trials for therapeutics in adult healthy volunteers” published by the U.S. Food and Drug Administration in 2005. Provided that an adult of 60 kg was used as the base, the principle of dosage conversion is 6.2 times of the recommended daily intake of mg/kg bw/day for human as the recommended daily intake of mg/kg bw/day for rat, and the rat group is configured and fed with the dosage as shown in Table 1. The formulae are as follows: Dose intake per kilogram of body weight in rats=Recommended intake in humans÷Body weight 60 kg×6.2, and thus the daily dose intake per kilogram of body weight in rats can be calculated.
# The experimental rats were divided into groups, and the obesity rats were induced by high-fat feed as follows (Please refer to Table 1). • i. NOR Group: Normal animal group. • ii. […]
# The body weight of rats was measured weekly and the changes in body weight of each group were compared at the end of the experiment.
# [2] = system: obesity rats induced by high-fat feed; assay: Liver weight and liver/body weight of high-fat diet rats; settings: Monascinol 0.31 mg/kg BW daily by tube feeding (human 3 mg/day), 8 weeks
# Experimental: as §1
# (§2) The experimental rats were divided into groups, and the obesity rats were induced by high-fat feed as follows (Please refer to Table 1). • i. NOR Group: Normal animal group. • ii. HF Group: High-fat control group including obesity rats induced by high-fat feed. • iii. RL Group: Obesity rats induced by high-fat feed and tube-fed daily with red yeast rice powder, equivalent to 0.5 g of red yeast rice containing 1.5 mg of Monascinol per day consumed by an adult […] of 60 kg. • iv. RH Group: Obesity rats induced by high-fat feed and tube-fed red yeast rice powder daily, equivalent to 2 g of red yeast rice containing 6 mg of Monascinol per day consumed by an adult of 60 kg. • v. […]
# [3] = system: obesity rats induced by high-fat feed; assay: Body fat mass and body fat rate (perirenal and epididymal fatty tissues); settings: high-fat diet rats, Monascinol 0.31 mg/kg BW daily by tube feeding (human 3 mg/day), 8 weeks
# Experimental: as §1
# as §2, with “iv.” for “iv. RH Group: Obesity rats induced by high-fat feed and tube-fed red yeast rice powder daily, equivalent to 2 g of red yeast rice containing 6 mg of Monascinol per day consumed by an adult of 60 kg. • v.”
# At the time of sacrifice, fatty tissues surrounding the kidneys and the epididymis (perirenal and epididymal fatty tissues) of the experimental animals were removed, and the their weights were measured and recorded. The body fat rate was calculated as follows: […]
# [4] = system: obesity rats induced by high-fat feed; assay: Serum biochemical analysis (TC, TG); settings: high-fat diet rats, Monascinol 0.31 mg/kg BW daily by tube feeding (human 3 mg/day), 8 weeks
# Experimental: as §1
# as §2, with “iv.” for “iv. RH Group: Obesity rats induced by high-fat feed and tube-fed red yeast rice powder daily, equivalent to 2 g of red yeast rice containing 6 mg of Monascinol per day consumed by an adult of 60 kg. • v.”
# The test was performed using a biochemical autoanalyzer (Model No.: Beckman-700, purchased from Fullerton, California, USA). The items measured were Total Cholesterol (TC), and Triglyceride (TG).
# [5] = system: obesity rats induced by high-fat feed; assay: Liver lipid extraction and determination (TC, TG); settings: high-fat diet rats; Monascinol 0.31 mg/kg BW daily by tube feeding (human 3 mg/day), 8 weeks
# Experimental: as §1
# (§3) The experimental rats were divided into groups, and the obesity rats were induced by high-fat feed as follows (Please refer to Table 1). • i. NOR Group: Normal animal group. • ii. HF Group: High-fat control group including obesity rats induced by high-fat feed. • iii. […]
# (§4) 0.1 g of liver tissue or fecal powder was weighed and 1 mL of chloroform:methanol (2:1, v/v volume ratio) was added, and homogenized with a tissue homogenizer and centrifuged to obtain the supernatant. […] The TC concentration was analyzed using a commercially available biochemical reagent (Model No. BXC 0261, Fortress), and the TG concentration was analyzed using a commercially available biochemical reagent (Model No. BXC 0271, Fortress), as per the kit instruction manual.
# [6] = system: obesity rats induced by high-fat feed; assay: Fecal lipid extraction and determination (TC, TG); settings: high-fat diet rats; Monascinol 0.31 mg/kg BW daily by tube feeding (human 3 mg/day), 8 weeks
# Experimental: as §1, §3, §4
# [7] = system: gut microbiota of high-fat diet rats; assay: Gut microbiota fecal analysis (full-length 16S sequencing)
# Experimental: About 0.3 g of fresh feces was collected into 1.5 mL of eppendorf before fasting for sacrifice, sealed with parafilm, stored at −80° C. for analysis, and sent to BioTools (New Taipei, Taiwan) for analysis.
# Total genomic DNA (QIAamp PowerFecal DNA, Qiagen) was extracted from the samples. The DNA concentration was determined by Qubit 4.0 fluorometer (Thermo Scientific) and adjusted to 1 ng/μL. The full-length 16S gene (V1-V9 region) was amplified by 16S gene-specific primers with barcodes (Forward primer 1): 5′ Phos/GCATC-16-base barcode-Sequence ID Number 11, Reverse primer 1: 5′Phos/GCATC-16-base barcode-Sequence ID Number 12). PCR reactions were performed using KAPA HiFi HotStart ReadyMix (Roche): at 95° C. for 3 min. and 20-27 cycles (Sample Dependency): at 95° C. for 30 sec., at 57° C. for 30 sec., at 72° C. for 60 sec; at 72° C. for 5 min., and finally stored at 4° C. for future use. PCR products were monitored on 1% agarose gels. Samples of approximately 1500 bp bright bands were selected and purified by using AMPure PB Beads for SMRTbell library preparation.
# SMRTbell libraries were prepared based on full-length 16S gene amplifications with barcoded primers used in the Multiplex SMRTbell Library Preparation and Sequencing Program (Pacbio). Sequencing was performed in circular consensus sequencing (CCS) mode on a PacBio Sequel Ile instrument, generating HiFi read with a Phred Scale=30. The DNA to be tested will be sequenced iteratively. By comparing the results of the reverse sequencing, sequencing errors will be corrected, ultimately achieving a high accuracy of >99.9% (QV30).
# Information Analysis (Sequential data processing/denoising and species annotation) The sample data from the downstream data were sorted out according to the Barcode sequence and PCR amplification primer sequences. After the removal of the barcodes and primer sequences, the data were imported into QIIME2 (v2019.7.0; https://qiime2.org/) and all the sequences of the samples were saved into one corresponding object Artifacts. QIIME2 cutadapt was used to remove the amplicon variant primers (forward primer 2: Sequence ID Number 13; reverse primer 2: Sequence ID Number 14), and the sequence with the primers removed will be used as QIIME2 DADA2. Input Reads.
# The denoising analysis began with the filtering of sequences, setting each sequence to be cropped to a specified length (forward reads: 280 bp; reverse reads: 220 bp) and setting the MaxEE (forward reads: 2; reverse reads: 2) parameter as the maximum number of expected error bases allowed for the sequence. This was followed by denoising, the core algorithm of DADA2 utilizing the information of sequence abundance, quality score, and relationships between sequences to correct the […] of sequencing errors and to infer the real sequences. Splicing was performed after denoising each end of the sequence (minimum overlap length 20 bp; overlap region was not allowed to be mismatched). Finally, the spliced sequences are subjected to chimera removal by comparing the sequences with higher abundance in the sample. If a sequence with low abundance is similar to several sequences, it can be recognized as a chimera and removed from the sample. Sequences after denoising analysis were used as representative sequences of Amplicon Sequence Variants (ASVs) and can be obtained from the ASV table for subsequent species annotation. The QIIME2 feature-classifier (v2019.7.0; https://qiime2.org/) was used to select machine learning-based classification methods and to train naïve bayes classifiers for different databases and specific variability regions. The taxonomic annotation of ASVs represented by this classifier yields taxonomic information and the composition of the microbial phyla of each sample at each classification level including kingdom, phylum, class, order, family, genus, and species.
# Welch's t-test was analyzed by STAMP (v2.1.3), and the intergroup species differences were plotted as bar charts. […]
# [8] = FIGS. 9A-9D, high-fat diet rats
# [9] = order level, FIG. 7C, high-fat diet rats
# [10] = phylum level, FIG. 7A, high-fat diet rats vs HF group
substance,measurement,setting,value
Monascinol [Msol],Weight before Sacrifice,[1]; after fasting,488.5 ± 31.7^a g
same,Weight 8 week,[1],512.1 ± 31.1^a g
same,Weight gain,[1],220.8 ± 38.8^a g
same,Liver Weight/Body Weight,[2],3.28 ± 0.37^b %
same,Liver weight,[2],16.84 2.31^b g
same,Fat/body weight,[3]; body fat percentage,3.35 ± 0.55^b %
same,Fat weight,[3]; perirenal and epididymal fat,17.95 3.55^b g
same,TC,[4],65.0 ± 10.4^b mg/dL
same,TG,[4],61.7 ± 10.7^a mg/dL
same,Liver TC,[5],5.05 ± 0.54^a mg/g
same,Liver TG,[5],14.40 ± 1.57^a mg/g
same,Feces TC,[6],46.22 ± 4.72^c mg/g
same,Feces TG,[6],61.27 4.80^cd mg/g
same,F/B ratio (abundance ratio of Firmicutes to Bacteroidetes),"[7]; FIG. 7A, high-fat diet rats vs HF group",decrease
same,effect on B. thetaiotaomicron in the intestines,[7]; [8],most significant
same,intestinal abundance of Dubosiella newyorkensis,[7]; [8],increase
same,bacterial abundance of Bifidobacteriales in the intestine,[7]; [9],increased
same,intestinal abundance of Verrucomicrobiales,[7]; [9],increased
same,abundance of Eubacteriales,"[7]; order level, FIG. 8, HF group 50.14%, high-fat diet rats, Monascinol (MSol, 3 mg/day), 8 weeks",43.21%
same,abundance of Bacteroidetes,[7]; [10],increase
same,abundance of Firmicutes,[7]; [10],decrease
same,abundance of A. muciniphila,"[7]; species level, FIG. 7F, high-fat diet-induced obesity rats",increased

# From patent US20250375491A1, “MONASCUS PILOSUS STRAIN, COMPOSITION FOR LOSING WEIGHT AND IMPROVING GUT MICROBIOTA COMPOSITION AND USE OF SAID MONASCUS PILOSUS” (SUNWAY BIOTECH CO., LTD., priority 2024, published 2025)
